Reference: US20220152004A1, “HETEROCYCLYL(PHENYL)METHANOL COMPOUNDS USEFUL IN THE TREATMENT OF HYPERGLYCAEMIA” (ATROGI AB, priority 2019, published 2022)
Counter-ions that a name gives are not always drawn.

How the values were obtained:
L6-myotubes [1] = assay: Glucose uptake (3H-2-deoxy-glucose) in differentiated L6-myotubes; assay type: cell-based; details: agonist final concentration 1×10^−5; for Biological example 3: Table 2, glucose uptake assay of Biological Example 1
Procedure: (§1) L6-myoblasts were grown in Dulbecco's Modified Eagle's Medium (DMEM) containing 4.5 g/l glucose supplemented with 10% fetal bovine serum, 2 mM L-Glutamine, 50 U/ml penicillin, 50 μg/ml streptomycin and 10 mM HEPES. Cells were plated at 1×10^5 cells per ml in 24-well plates. After reaching 90% confluence the cells were grown in medium containing 2% FBS for 7 days where upon cells differentiated into myotubes.
Differentiated L6-myotubes were serum-starved overnight in medium containing 0,5% fatty-acid free BSA and stimulated with agonist, final concentration 1×10^−5. After 1 h 40 min cells were washed with warm, glucose free medium or PBS and another portion of agonist was added to glucose free medium. After 20 min the cells were exposed to 50 nM ^3H-2-deoxy-glucose for another 10 min before washed in ice cold glucose free medium or PBS and lysed in 0.2 M NaOH for 1 h in 60° C.

L6-myotubes [2] = assay: Measurement of intracellular cAMP levels in differentiated L6-myotubes; assay type: cell-based; details: for Biological example 4: Table 2, cAMP assay of Biological Example 2, agonist final concentration 1×10^−5
Procedure: as §1
Differentiated cells were serum-starved overnight and stimulated with agonist, final concentration 1×10^−5, for 15 min in stimulation buffer (HBSS supplemented with 1% BSA, 5 mM HEPES and 1 mM IBMX, pH 7,4) The medium was then aspirated and to end the reaction 100 μL of 95% EtOH was added to each well of a 24-well plate and cells were kept in −20° C. over night. The EtOH was let to evaporate and 500 μL of lysis buffer (1% BSA, 5 mM HEPES and 0,3% Tween-20, pH 7,4) was added to each well before put in −80° C. for 30 min and then kept in −20° C. Intracellular cAMP levels were detected using an alpha screen cAMP kit (6760635D from Perkin Elmer). The activity for each compound is compared to that of isoproterenol.

SMILES | Emax at 10 µM (L6-myotubes [1]; differentiated L6-myotubes, Table 1, read-out: Biological example 1 (glucose uptake, activity compared to that of isoproterenol)) | Emax at 10 µM (L6-myotubes [2]; 0.25 h, agonist final concentration 1×10^−5, 15 min, differentiated cells, Table 1, read-out: Biological example 2 (intracellular cAMP levels, activity compared to that of isoproterenol)) | Biological example 3 (L6-myotubes [1]) | Biological example 4 (L6-myotubes [2])
O[C@@H](c1cccc(F)c1)[C@H]1CCC2(CCCC2)N1 [Example 32, (S)-(3-Fluorophenyl)((R)-1-azaspiro[4.4]nonan-2-yl)methanol maleate] | < 25% | < 25% | – | –
CC1(C)C[C@H]([C@H](O)c2cccc(F)c2)N1.Cl [Example 33, (R)-((R)-4,4-dimethylazetidin-2-yl)(3-fluorophenyl)methanol hydrochloride] | – | – | +++ (more than 75% of that of isoproterenol) | ++ (between 75 and 50%)
CC1(C)C[C@@H]([C@@H](O)c2ccccc2F)N1.Cl [Example 34, (S)-((S)-4,4-dimethylazetidin-2-yl)(2-fluorophenyl)methanol hydrochloride] | – | – | + (between 50 and 25%) | − (less than 25%)
CC1(C)C[C@H]([C@H](O)c2ccccc2F)N1.Cl [Example 35, (R)-((R)-4,4-dimethylazetidin-2-yl)(2-fluorophenyl)methanol hydrochloride] | – | – | +++ (more than 75% of that of isoproterenol) | + (between 50 and 25%)
CC1(C)C[C@H]([C@@H](O)c2ccccc2F)N1.Cl [Example 36, (S)-((R)-4,4-dimethylazetidin-2-yl)(2-fluorophenyl)methanol hydrochloride] | – | – | + (between 50 and 25%) | − (less than 25%)
CC1(C)C[C@@H]([C@H](O)c2ccccc2F)N1.Cl [Example 37, (R)-((S)-4,4-dimethylazetidin-2-yl)(2-fluorophenyl)methanol hydrochloride] | – | – | − (less than 25%) | − (less than 25%)
CC1(C)C[C@@H]([C@H](O)c2cccc(F)c2)N1.Cl [Example 39, (R)-((S)-4,4-dimethylazetidin-2-yl)(3-fluorophenyl)methanol hydrochloride] | – | – | − (less than 25%) | − (less than 25%)
CC1(C)C[C@@H]([C@@H](O)c2cccc(F)c2)N1.Cl [Example 40, (S)-((S)-4,4-dimethylazetidin-2-yl)(3-fluorophenyl)methanol hydrochloride] | – | – | + (between 50 and 25%) | − (less than 25%)
CC1(C)CCC[C@@H]([C@H](O)c2ccccc2F)N1.Cl [Example 41, (R)-((S)-6,6-dimethylpiperidin-2-yl)(2-fluorophenyl)methanol hydrochloride] | – | – | +++ (more than 75% of that of isoproterenol) | + (between 50 and 25%)
CC1(C)CCC[C@@H]([C@@H](O)c2ccccc2F)N1.Cl [Example 42, (S)-((S)-6,6-dimethylpiperidin-2-yl)(2-fluorophenyl)methanol hydrochloride] | – | – | + (between 50 and 25%) | − (less than 25%)
CC1(C)CCC[C@@H]([C@@H](O)c2cccc(F)c2)N1.Cl [Example 43, (S)-((S)-6,6-dimethylpiperidin-2-yl)(3-fluorophenyl)methanol hydrochloride] | – | – | + (between 50 and 25%) | − (less than 25%)
CC1(C)CCC[C@@H]([C@H](O)c2cccc(F)c2)N1.Cl [Example 44, (R)-((S)-6,6-dimethylpiperidin-2-yl)(3-fluorophenyl)methanol hydrochloride] | – | – | ++ (between 75 and 50%) | − (less than 25%)
CC1(C)C[C@H]([C@H](O)c2cccc(Cl)c2)N1.O=C(O)/C=C\C(=O)O [Example 45, (R)-(3-chlorophenyl)((R)-4,4-dimethylazetidin-2-yl)methanol maleate] | – | – | +++ (more than 75% of that of isoproterenol) | − (less than 25%)
CC1(C)C[C@H]([C@@H](O)c2cccc(Cl)c2)N1.O=C(O)/C=C\C(=O)O [Example 46, (S)-(3-chlorophenyl)((R)-4,4-dimethylazetidin-2-yl)methanol maleate] | – | – | − (less than 25%) | − (less than 25%)
CC1(C)C[C@@H]([C@H](O)c2cccc(Cl)c2)N1.O=C(O)/C=C\C(=O)O [Example 47, (R)-(3-chlorophenyl)((S)-4,4-dimethylazetidin-2-yl)methanol maleate] | – | – | ++ (between 75 and 50%) | − (less than 25%)
CC1(C)C[C@@H]([C@@H](O)c2cccc(Cl)c2)N1.O=C(O)/C=C\C(=O)O [Example 48, (S)-(3-chlorophenyl)((S)-4,4-dimethylazetidin-2-yl)methanol maleate] | – | – | + (between 50 and 25%) | − (less than 25%)
CC1(C)CC[C@H]([C@H](O)c2cccc(N)c2F)N1.Cl [Example 49, (R)-(3-amino-2-fluorophenyl)((R)-5,5-dimethylpyrrolidin-2-yl)methanol hydrochloride] | – | – | +++ (more than 75% of that of isoproterenol) | − (less than 25%)
CC1(C)CC[C@H]([C@@H](O)c2cccc(N)c2F)N1.Cl [Example 50, (S)-(3-amino-2-fluorophenyl)((R)-5,5-dimethylpyrrolidin-2-yl)methanol hydrochloride] | – | – | + (between 50 and 25%) | − (less than 25%)
